Measurements reported in patent US8466145B2, “Dipeptidyl peptidase IV inhibitors” (Orchid Chemicals & Pharmaceuticals Limited, priority 2009, dated 2013).
pIC50: −log10 of the molar value. Values belong to the compound of their own block, whether it stands above or below them.

Key:
DPP-IV = target: T1, DPP-IV (Homo sapiens, UniProt P27487); test: DPP-IV inhibition, compounds screened by using human plasma; format: biochemical; conditions: screened by using human plasma (starred examples); for inhibition at 0.3 µM: 300 nM compound concentration
T1 construct: from tissue; host or cells: human plasma (per the earlier reading of the assay)

[1] = target: T2, human recombinant Dipeptidyl peptidase 9 enzyme (hrDPP 9) (Homo sapiens, UniProt Q86TI2); test: DPP 9 assay, cleavage of H-Gly-Pro-AMC; format: biochemical; conditions: selectivity for DPP-IV over DPP 9
T2 construct: purchased R&D systems
Method: DPP 9 activity was determined by the cleavage rate of 7-amino 4-methylcoumarin (AMC) from the substrate H-Gly-Pro-AMC. In brief, the assay was conducted by adding 10 ng of human recombinant Dipeptidyl peptidase 9 enzyme (hrDPP 9, available commercially from R&D systems) in 70 μL of the assay buffer (50 mM TRIS and 5 mM EDTA, pH 7.7) to a 96 well black flat bottom microtitre plate. Test compound was added as 10 μL additions to all wells except blank and total activity wells. After incubation of test substance with enzyme for 30 minutes at room temperature, 10 μL of 100 μM substrate H-Gly-Pro-AMC was added. After mixing, the plate was left for 30 minutes at room temperature. Then the reaction was terminated by addition of 10 μL of 25% Glacial Acetic Acid. Fluorescence was measured using Spectra Max Gemini XS (Molecular Devices, USA) at an excitation filter of 360 nm and emission filter of 460 nm.
Test compound dissolved in DMSO were diluted with assay buffer at different concentrations and tested in duplicates. Percentage inhibition was calculated with respect to total activity. IC50 value was calculated by using Prism Software.

C57BL/6 mice = test: Oral glucose tolerance test; format: in vivo; conditions: compound 10 mg/kg; for Antihyperglycemic activity, reduction in AUC (blood glucose), Time 0.50 hr: glucose 2 g/kg challenge 0.50 hr after compound administration; for Antihyperglycemic activity, reduction in AUC (blood glucose), Time 6.00 hr: glucose 2 g/kg challenge 6.00 hr after compound administration, NA = No activity
Method: Effect of compound on glucose tolerance was examined in 7 week old C57BL/6 mice. Animals were kept for 18 h fasting and were challenged with glucose (2 g/kg) 30 min after compound (10 mg/kg) administration. Blood samples for glucose measurement were obtained by tail bleed pre dose and at serial time points after the glucose load (30, 60 and 120 minutes). Blood glucose estimation was done by using ContourTS active strips on glucometer (Bayer). To find the time response on glucose excursion, animals were challenged with glucose at different time point after compound administration (0.5, 2, 4, 6, 8, 12 or 24 hours) at blood glucose was measured at pre (0 minute) and post (30, 60 and 120 minutes) glucose load.
Results of blood glucose were expressed as area under curve (AUC) was calculated using Prism software.

[2] = target: T3, human recombinant Dipeptidyl peptidase 8 enzyme (hrDPP 8) (Homo sapiens, UniProt Q6V1X1); test: DPP 8 assay, cleavage of H-Ala-Pro-AFC; format: biochemical; conditions: selectivity for DPP-IV over DPP 8
T3 construct: purchased R&D systems
Method: DPP 8 activity was determined by the cleavage rate of 7-amino 4-fluoromethylcoumarin (AFC) from the substrate H-Ala-Pro-AFC. In brief, the assay was conducted by adding 30 ng of human recombinant Dipeptidyl peptidase 8 enzyme (hrDPP 8, available commercially from R&D systems) in 70 μL of the assay buffer (50 mM TRIS and 5 mM EDTA, pH 7.7) to a 96 well black flat bottom microtitre plate. Test compound was added as 10 μL additions to all wells except blank and total activity wells. After incubation of test substance with enzyme for 30 minutes at room temperature, 10 μL of 100 μM substrate H-Ala-Pro-AFC was added. After mixing, the plate was left for 30 minutes at room temperature. Then the reaction was terminated by addition of 10 μL of 25% Glacial Acetic Acid. Fluorescence was measured using Spectra Max Gemini XS (Molecular Devices, USA) at an excitation filter of 400 nm and emission filter of 505 nm.
Test compound dissolved in DMSO were diluted with assay buffer at different concentrations and tested in duplicates. Percentage inhibition was calculated with respect to total activity. IC50 value was calculated using Prism Software.

[3] = target: T4, human recombinant Dipeptidyl peptidase IV enzyme (hrDPP IV) (Homo sapiens, UniProt P27487); test: DPP IV assay, cleavage of H-Gly-Pro-AMC by human recombinant DPP-IV enzyme; format: biochemical
T4 construct: purchased R&D systems
Method in brief: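 Human recombinant DPP-IV (3 ng) preincubated 60 min at room temperature with compound in 25 mM HEPES, 140 mM NaCl, 1% BSA, pH 7.8, in duplicate. Reaction with H-Gly-Pro-AMC (10 μL of 100 μM) for 20 min, stopped with acetic acid; AMC fluorescence 360/460 nm, IC50 from percent inhibition.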

T4 sequence (P27487 whole entry): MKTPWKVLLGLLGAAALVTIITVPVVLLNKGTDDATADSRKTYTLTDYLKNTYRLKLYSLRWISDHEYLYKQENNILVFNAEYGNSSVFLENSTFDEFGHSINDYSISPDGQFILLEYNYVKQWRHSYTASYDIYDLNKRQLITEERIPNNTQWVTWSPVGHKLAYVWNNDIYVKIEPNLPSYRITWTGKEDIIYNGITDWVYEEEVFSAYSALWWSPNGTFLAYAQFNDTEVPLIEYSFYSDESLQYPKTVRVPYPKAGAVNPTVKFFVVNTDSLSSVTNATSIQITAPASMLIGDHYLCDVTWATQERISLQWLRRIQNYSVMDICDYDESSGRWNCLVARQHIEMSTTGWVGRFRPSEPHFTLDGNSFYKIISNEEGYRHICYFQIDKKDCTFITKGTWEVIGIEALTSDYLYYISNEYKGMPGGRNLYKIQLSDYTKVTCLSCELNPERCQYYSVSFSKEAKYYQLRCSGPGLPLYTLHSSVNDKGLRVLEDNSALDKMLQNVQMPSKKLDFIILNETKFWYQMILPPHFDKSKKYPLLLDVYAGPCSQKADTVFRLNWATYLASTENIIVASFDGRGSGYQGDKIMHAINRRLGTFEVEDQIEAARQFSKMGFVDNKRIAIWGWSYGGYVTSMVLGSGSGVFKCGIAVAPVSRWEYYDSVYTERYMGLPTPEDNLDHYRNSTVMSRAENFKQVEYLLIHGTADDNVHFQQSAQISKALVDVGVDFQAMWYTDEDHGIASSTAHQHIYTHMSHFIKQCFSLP
T1 sequence (P27487 39-766 limits assumed): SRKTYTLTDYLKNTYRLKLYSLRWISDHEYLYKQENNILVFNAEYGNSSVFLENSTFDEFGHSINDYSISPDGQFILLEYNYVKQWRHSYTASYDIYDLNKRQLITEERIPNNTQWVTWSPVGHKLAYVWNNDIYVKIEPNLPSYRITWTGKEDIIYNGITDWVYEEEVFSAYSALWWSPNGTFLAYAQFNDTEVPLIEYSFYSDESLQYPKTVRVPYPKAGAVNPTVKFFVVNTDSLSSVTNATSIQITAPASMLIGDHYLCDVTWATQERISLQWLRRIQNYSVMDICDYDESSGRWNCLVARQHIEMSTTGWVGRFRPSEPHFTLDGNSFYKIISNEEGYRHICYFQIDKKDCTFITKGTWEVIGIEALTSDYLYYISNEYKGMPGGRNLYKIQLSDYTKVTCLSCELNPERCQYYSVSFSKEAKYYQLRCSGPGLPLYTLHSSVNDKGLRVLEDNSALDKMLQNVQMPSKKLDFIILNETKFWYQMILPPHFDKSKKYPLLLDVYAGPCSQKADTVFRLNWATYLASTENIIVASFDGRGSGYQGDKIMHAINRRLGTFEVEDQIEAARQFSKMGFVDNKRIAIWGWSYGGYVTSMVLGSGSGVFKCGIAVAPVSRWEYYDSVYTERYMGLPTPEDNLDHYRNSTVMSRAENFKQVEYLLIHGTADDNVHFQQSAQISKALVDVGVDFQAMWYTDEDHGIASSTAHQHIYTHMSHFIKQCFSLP
T2 sequence (Q86TI2 whole entry): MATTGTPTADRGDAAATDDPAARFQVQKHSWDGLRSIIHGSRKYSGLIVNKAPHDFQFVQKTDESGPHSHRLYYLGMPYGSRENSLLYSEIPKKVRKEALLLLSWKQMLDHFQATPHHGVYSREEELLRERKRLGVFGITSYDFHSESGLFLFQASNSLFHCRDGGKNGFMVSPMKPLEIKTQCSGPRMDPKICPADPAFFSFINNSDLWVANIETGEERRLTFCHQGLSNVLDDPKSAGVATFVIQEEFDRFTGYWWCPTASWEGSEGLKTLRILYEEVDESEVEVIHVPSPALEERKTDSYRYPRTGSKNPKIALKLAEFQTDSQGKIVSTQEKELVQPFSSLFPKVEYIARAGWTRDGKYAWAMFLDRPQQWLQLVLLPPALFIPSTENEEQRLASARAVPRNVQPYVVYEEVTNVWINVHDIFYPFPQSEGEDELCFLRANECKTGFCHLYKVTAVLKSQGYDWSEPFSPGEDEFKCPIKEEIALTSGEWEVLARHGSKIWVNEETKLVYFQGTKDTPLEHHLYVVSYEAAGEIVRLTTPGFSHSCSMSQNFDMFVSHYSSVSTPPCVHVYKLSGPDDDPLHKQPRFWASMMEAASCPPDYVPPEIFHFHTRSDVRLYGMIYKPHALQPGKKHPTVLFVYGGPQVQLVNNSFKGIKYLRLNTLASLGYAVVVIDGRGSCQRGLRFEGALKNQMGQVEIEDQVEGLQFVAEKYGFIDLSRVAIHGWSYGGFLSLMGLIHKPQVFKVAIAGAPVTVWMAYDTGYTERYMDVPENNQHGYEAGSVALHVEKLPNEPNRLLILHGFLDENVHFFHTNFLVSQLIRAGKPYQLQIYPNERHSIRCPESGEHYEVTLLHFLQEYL
T3 sequence (Q6V1X1 whole entry): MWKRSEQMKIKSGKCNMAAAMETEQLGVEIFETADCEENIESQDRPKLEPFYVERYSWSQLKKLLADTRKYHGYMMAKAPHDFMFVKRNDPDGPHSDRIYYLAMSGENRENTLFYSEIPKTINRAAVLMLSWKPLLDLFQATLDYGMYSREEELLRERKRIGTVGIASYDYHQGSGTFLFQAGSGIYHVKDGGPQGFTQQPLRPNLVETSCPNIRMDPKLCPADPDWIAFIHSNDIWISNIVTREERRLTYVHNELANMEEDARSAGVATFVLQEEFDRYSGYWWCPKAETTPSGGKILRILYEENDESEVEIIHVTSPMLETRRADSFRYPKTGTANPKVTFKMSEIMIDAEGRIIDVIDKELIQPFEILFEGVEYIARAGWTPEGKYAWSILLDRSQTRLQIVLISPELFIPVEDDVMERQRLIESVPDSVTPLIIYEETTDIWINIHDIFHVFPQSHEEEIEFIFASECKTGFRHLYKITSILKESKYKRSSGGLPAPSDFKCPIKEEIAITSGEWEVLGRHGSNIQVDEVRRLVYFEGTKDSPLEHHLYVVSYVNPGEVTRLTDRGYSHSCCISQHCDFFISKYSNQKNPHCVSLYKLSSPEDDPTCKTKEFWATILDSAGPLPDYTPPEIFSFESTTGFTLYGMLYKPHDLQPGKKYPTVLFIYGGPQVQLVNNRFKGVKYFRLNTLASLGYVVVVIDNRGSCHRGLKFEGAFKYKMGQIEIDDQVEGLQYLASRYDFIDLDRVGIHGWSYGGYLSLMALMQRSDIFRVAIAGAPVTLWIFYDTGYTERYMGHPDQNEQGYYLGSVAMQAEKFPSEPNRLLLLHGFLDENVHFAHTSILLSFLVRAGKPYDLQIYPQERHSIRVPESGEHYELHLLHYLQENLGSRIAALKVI

SMILES: CC1(C)[C@@H](Cn2cncn2)CC[C@@]1(C)NCC(=O)N1C[C@H](F)C[C@H]1C#N [Example 2, (2S,4R)-1-(2-((1R,3S)-3-((1H-1,2,4-Triazol-1-yl)methyl)-1,2,2-trimethylcyclopentylamino)acetyl)-4-fluoropyrrolidine-2-carbonitrilemethane sulfonate]
inhibition at 0.3 µM (DPP-IV): 10.5%

SMILES: CC1(C)[C@H](Cn2cncn2)CC[C@]1(C)NCC(=O)N1C[C@H](F)C[C@H]1C#N [Example 5, (2S,4R)-1-(2-((1S,3R)-3-((1H-1,2,4-Triazol-1-yl)methyl)-1,2,2-trimethylcyclopentylamino)acetyl)-4-fluoropyrrolidine-2-carbonitrilemethanesulfonate]
inhibition at 0.3 µM (DPP-IV): 4.1%

SMILES: CC1(C)[C@@H](CNC(=O)c2ccccc2F)CC[C@@]1(C)NCC(=O)N1C[C@@H](F)C[C@H]1C#N [Example 21, N-(((1S,3R)-3-(2-((2S,4S)-2-Cyano-4-fluoropyrrolidin-1-yl)-2-oxoethylamino)-2,2,3-trimethylcyclopentyl)methyl)-2-fluorobenzamide]
melting point: 123 to 127 °C | pIC50 (DPP-IV): 6.48

SMILES: CC1(C)[C@H](CN2CCCS2(=O)=O)CC[C@]1(C)NCC(=O)N1C[C@@H](F)C[C@H]1C#N [Example 29, (2S,4S)-1-(2-((1S,3R)-3-[(1,1-Dioxidoisothiazolidin-2-yl)methyl]-1,2,2-trimethyleyclopentylamino)acetyl)-4-fluoropyrrolidine-2-carbonitrile]
melting point: 171 to 174 °C | Selectivity (Fold) DPP 9 [1]: >1100 Fold | Antihyperglycemic activity, reduction in AUC (blood glucose), Time 0.50 hr (C57BL/6 mice): 42.52% | Antihyperglycemic activity, reduction in AUC (blood glucose), Time 6.00 hr (C57BL/6 mice): 20.21% | Selectivity (Fold) DPP 8 [2]: >13000 Fold | pIC50 [3]: 8.12

SMILES: CC1(C)[C@H](Cn2cnnn2)CC[C@]1(C)NCC(=O)N1C[C@@H](F)C[C@H]1C#N [Example 32, (2S,4S)-1-(2-((1S,3R)-3-((1H-Tetrazol-1-yl)methyl)-1,2,2-trimethylcyclopentylamino)acetyl)-4-fluoropyrrolidine-2-carbonitrile]
melting point: 151 to 154 °C | Selectivity (Fold) DPP 9 [1]: >1900 Fold | Antihyperglycemic activity, reduction in AUC (blood glucose), Time 0.50 hr (C57BL/6 mice): 17.80% | Selectivity (Fold) DPP 8 [2]: >9500 Fold | pIC50 [3]: 8.22

SMILES: CC1(C)[C@H](CN2CCOCC2)CC[C@]1(C)NCC(=O)N1C[C@@H](F)C[C@H]1C#N [Example 34, (2S,4S)-4-Fluoro-1-(2-((1S,3R)-1,2,2-trimethyl-3-(morpholinomethyl)cyclopentylamino)acetyl)pyrrolidine-2-carbonitrile]
melting point: 163 to 166 °C | Selectivity (Fold) DPP 9 [1]: >1500 Fold | Antihyperglycemic activity, reduction in AUC (blood glucose), Time 0.50 hr (C57BL/6 mice): 54.32% | Selectivity (Fold) DPP 8 [2]: >10000 Fold | pIC50 [3]: 8.05

SMILES: CC1(C)[C@H](CS(=O)(=O)c2ccc(S(C)(=O)=O)cc2)CC[C@]1(C)NCC(=O)N1C[C@H](F)C[C@H]1C#N [Example 47, (2S,4R)-4-Fluoro-1-(2-((1S,3R)-1,2,2-trimethyl-3-((4-(methylsulfonyl)phenylsulfonyl)methyl)cyclopentylamino)acetyl)pyrrolidine-2-carbonitrile]
melting point: 172 to 175 °C | inhibition at 0.3 µM (DPP-IV): 13.5%

Further lines, with some results ahead:

inhibition at 0.3 µM (DPP-IV): 4.46%
SMILES: CC1(C)[C@@H](c2nc(-c3ccc(F)cc3)no2)CC[C@@]1(C)NCC(=O)N1C[C@@H](F)C[C@H]1C#N [Example 48, (2S,4S)-4-Fluoro-1-(2-((1R,3S)-3-(3-(4-fluorophenyl)-1,2,4-oxadiazol-5-yl)-1,2,2-trimethyleyclopentylamino)acetyl)pyrrolidine-2-carbonitrile]

melting point: 160 to 163 °C | pIC50 (DPP-IV): 6.37
SMILES: CC1(C)[C@H](c2nc(-c3ccc(F)cc3)no2)CC[C@]1(C)NCC(=O)N1C[C@@H](F)C[C@H]1C#N [Example 49, (2S,4S)-4-Fluoro-1-(2-((1S,3R)-3-(3-(4-fluorophenyl)-1,2,4-oxadiazol-5-yl)-1,2,2-trimethylcyclopentylamino)acetyl)pyrrolidine-2-carbonitrile]

melting point: 91 to 94 °C | inhibition at 0.3 µM (DPP-IV): 29.2%
SMILES: CC(C)c1noc([C@H]2CC[C@@](C)(NCC(=O)N3C[C@@H](F)C[C@H]3C#N)C2(C)C)n1 [Example 52, (2S,4S)-4-Fluoro-1-(2-((1R,3S)-3-(3-isopropyl-1,2,4-oxadiazol-5-yl)-1,2,2-trimethylcyclopentylamino)acetyl)pyrrolidine-2-carbonitrile]

melting point: 147 to 149 °C | Selectivity (Fold) DPP 9 [1]: >7000 Fold | Selectivity (Fold) DPP 8 [2]: >19000 Fold | pIC50 [3]: 8.18 | inhibition at 0.3 µM ([3]; 300 nM compound concentration): 94.7%
SMILES: CC1(C)[C@H](Cc2noc(CO)n2)CC[C@]1(C)NCC(=O)N1C[C@@H](F)C[C@H]1C#N [Example 60, (2S,4S)-4-Fluoro-1-(2-((1S,3S)-3-((5-(hydroxymethyl)-1,2,4-oxadiazol-3-yl)methyl)-1,2,2-trimethylcyclopentylamino)acetyl)pyrrolidine-2-carbonitrile]
Antihyperglycemic activity, reduction in AUC (blood glucose), Time 0.50 hr (C57BL/6 mice): 47.70% | Antihyperglycemic activity, reduction in AUC (blood glucose), Time 6.00 hr (C57BL/6 mice): 51.55% | Antihyperglycemic activity, reduction in AUC (blood glucose), Time 12.00 hr (C57BL/6 mice; glucose 2 g/kg challenge 12.00 hr after compound administration): 29.62%

pIC50 (DPP-IV): 6.62
SMILES: CC1(C)[C@@H](NCC(=O)N2C[C@@H](F)C[C@H]2C#N)CC[C@@]1(C)c1nc(-c2ccc(F)cc2)no1 [Example 65, (2S,4S)-4-Fluoro-1-(2-((1S,3R)-3-(3-(4-fluorophenyl)-1,2,4-oxadiazol-5-yl)-2,2,3-trimethylcyclopentylamino)acetyl)pyrrolidine-2-carbonitrile]

inhibition at 0.3 µM (DPP-IV): 23.2%
SMILES: CC1(C)[C@@H](NCC(=O)N2CCC[C@H]2C#N)CC[C@@]1(C)c1nc(-c2ccc(F)cc2)no1 [Example 66, (S)-1-(2-((1S,3R)-3-(3-(4-Fluorophenyl)-1,2,4-oxadiazol-5-yl)-2,2,3-trimethylcyclopentylamino)acetyl)pyrrolidine-2-carbonitrile methanesulfonate]

melting point: 74 to 79 °C | inhibition at 0.3 µM (DPP-IV): 13.4%
SMILES: CN1C[C@]2(C)CC[C@](NCC(=O)N3C[C@H](F)C[C@H]3C#N)(C1)C2(C)C [Example 77, (2S,4R)-4-Fluoro-1-(2-((1R,5R)-3,5,8,8-tetramethyl-3-azabicyclo[3.2.1]octan-1-ylamino)acetyl)pyrrolidine-2-carbonitrile]
